# From patent EP4763221A1, “COMPOUND AND ANTIBODY-DRUG CONJUGATE COMPRISING SAME” (priority 2023, dated 2025)
# Key:
# MDA-MB-453 cells [1] = assay: ADCC activity with PBMCs (LDH cytotoxicity detection); type: cell-based; details: 5, 15 and 45 µg/mL, PBMC effector-to-target ratio 30:1, 4 h
# Procedure: MDA-MB-453 cells (purchased from Cobioer Biosciences Co., Ltd., Cat. No. CBP60386) and PBMCs (provided by Zhongshan Blood Center) in the logarithmic growth phase were collected and centrifuged at 170× g for 5 min, and the supernatant was discarded. The cell pellet was resuspended in an assay medium (RPMI-1640 containing 1% FBS), centrifuged and washed twice, and the cells were counted. The cell density was adjusted with the assay medium, and the target cell suspension was seeded into a 96-well plate (containing about 3 × 10^4 target cells/well) at 50 µL/well. Then, serially diluted drugs (5 µg/mL, 15 µg/mL, and 45 µg/mL based on the working concentration of the antibody, respectively) were added, and the plate was pre-incubated at room temperature for 1 h. After the pre-incubation was completed, the PBMC suspension was added to the sample wells at 100 µL/well (each well contained about 9 × 10^5 PBMCs with an effector-to-target ratio of 30:1), mixed uniformly, and incubated in an incubator at 37 °C with 5% CO2 for 4 h. After the incubation was completed, the 96-well plate was taken out and centrifuged at 250× g for 5 min. 100 µL of culture supernatant was carefully pipetted and transferred to another 96-well plate. […] OD values at 490 nm and 650 nm were measured. […] The ADCC activity (expressed as ADCC%) was calculated based on the measured OD value of each group. […]
# MDA-MB-453 cells [2] = assay: FACS assay for internalization activity in MDA-MB-453 cells; type: cell-based; details: 100 nM, 37 °C for 1 h, 3 h and 5 h, compared to isotype control IgG-Dxd
# Procedure: MDA-MB-453 cells (purchased from Cobioer Biosciences Co., Ltd., Cat. No. CBP60386) were collected, counted, and determined for cell viability. The cell suspension was added to a 96-well low-adsorption plate at 1 × 10^5 cells/sample and centrifuged at 750× g for 5 min. The supernatant was discarded. 100 µL of the experimental drug (at a working concentration of 100 nM) was added, with an isotype control (IgG-Dxd, at a working concentration of 100 nM) designed in parallel. The mixture was mixed uniformly and incubated in an incubator at 37 °C for 1 h, 3 h, and 5 h. After the incubation was completed, 1% PBSA (PBS + 1% BSA) was added, and the mixture was centrifuged at 750× g for 5 min. The supernatant was discarded, and the cells were washed twice with 1% PBSA. 100 µL of patritumab (at a working concentration of 100 nM) was added, and the mixture was incubated on ice for 30 min. 1% PBSA (PBS + 1% BSA) was added, and the mixture was centrifuged at 750× g for 5 min. The supernatant was discarded, and the cells were further washed twice with 1% PBSA. 100 µL of 300-fold diluted fluorescent antibody Mouse Anti-Human IgG Fc-Alexa Fluor 647 (Southern Biotech, Cat. No. 9040-31) was added, and the cell pellet was resuspended and incubated on ice for 30 min in the dark. 1% PBSA (PBS + 1% BSA) was added, and the mixture was centrifuged at 1000× g for 5 min. […]
# NCI-H1781 cells = assay: Specific cell killing activity (CellTiter-Glo); type: cell-based; details: medium with 10% human ab serum, 6 days
# Procedure: NCI-H1781 cells (Cobioer Biosciences Co., Ltd., Cat. No. CBP60116) were collected, and centrifuged at 1000× g for 5 min, and then the supernatant was removed. The cells were resuspended and counted, and the viability was determined. The cells were diluted, and NCI-H1781 (2500 cells/100 µL) was added to each well of a black-bottom 96-well plate. The plate was incubated in an incubator at 37 °C with 5% CO2 overnight. The experimental drug was diluted with a medium (10% human ab serum), and 100 µL of the experimental drug was added to each well according to the experimental design. A blank control was designed, with three replicate wells set for each group. The plate was incubated in an incubator at 37 °C with 5% CO2 for 6 days. After incubation, the 96-well plate was centrifuged at 350× g for 5 min, and then 135 µL of the supernatant was discarded. 60 µL of CellTiter-Glo (Promega, Cat. No. G8461) was added to each well. The plate was incubated at room temperature for 15 min. Then the […] value was detected by a multi-label microplate tester.
# [3] = system: HCC827 human lung cancer cell xenograft tumor; assay: In vivo efficacy in xenograft tumor model; parameters: species or system CB-17 SCID mice; details: 3 mg/kg and 1.5 mg/kg, IV, weekly×3, compared to isotype control antibody
# Excerpt: To determine the anti-tumor activity of the anti-HER3 antibody-drug conjugates in vivo, HCC827 human lung cancer cells (purchased from GuangZhou Jennio Biotech Co., Ltd.) were first inoculated subcutaneously into 5- to 8-week-old female CB-17 SCID mice (purchased from Guangdong Model Organisms Center, Inc.) on the upper posterior region of the right hind thigh. The day of grouping was defined as D0. The route of administration was intravenous injection (iv), once a week for a total of 3 doses. After the administration, the length and width of the tumors in each group were measured, and the tumor volume was calculated. Table 7: Dosing regimen of anti-HER3 antibody-drug conjugates for treatment of CB-17 SCID mouse model of HCC827 human lung cancer cell xenograft tumor
substance,measurement,setting,value
KA0013: anti-HER3 antibody-drug conjugate: patritumab conjugated via thioether bonds to Mc-AAA-Dxd (KA0012),ADCC activity,MDA-MB-453 cells [1],had ADCC activity
same,endocytic (internalization) activity,MDA-MB-453 cells [2],could be endocytosed in MDA-MB-453
same,specific cell killing activity,NCI-H1781 cells,specifically kill NCI-H1781 cells
same,growth of mouse tumors (tumor volume),[3],effectively inhibit the growth of mouse tumors
